The NIST ThermoML archive (doi:10.1016/j.jct.2013.03.004)
Numbers after ± are expanded uncertainties.

Conditions: 101 kPa, Liquid mixture 1, Drop volume

Question: Which interfacial tension (293.2 K) does the source give for Cc1ccccc1 [toluene] + O here?
Answer: The interfacial tension was 37.2 ± 0.3 mN/m.

Question: And the interfacial tension (298.2 K)?
Answer: The interfacial tension was 36.3 ± 0.3 mN/m.

Question: And the interfacial tension (303.2 K)?
Answer: The interfacial tension was 35.7 ± 0.3 mN/m.

Question: And the interfacial tension (308.2 K)?
Answer: The interfacial tension was 35.2 ± 0.3 mN/m.

Question: What about the interfacial tension (313.2 K) of the same compound?
Answer: The interfacial tension was 34.7 ± 0.3 mN/m.
